Laboratory results: patent US9096601B2 (CSPC Zhongqi Pharmaceutical Technology (Shijiazhuang) Co., …, priority 2010, dated 2015)

Tests used:
[1] = molecular target: EGFR L858R/T790M double mutant type (Homo sapiens (Human), UniProt P00533, L858R/T790M); assay: Kinase inhibitory activity, isotopic labeling (γ-33P-ATP); type: biochemical; conditions: ATP 45 μM (Km)
Protocol: (§1) The object of this assay was to test the inventive compounds for the kinase inhibitory activity in vitro. In this assay, an isotopic labeling method was used to label the γ phosphate group on ATP. […] Staurosporine was used as a reference molecule (or referred to as a positive control). […] The IC50 value can be obtained by the calculation of the inhibitory rates at a series of different concentrations of the tested compounds.
(§2) To a reaction tube were successively added the buffer solution (8 mM MOPS, pH 7.0, 0.2 mM EDTA, 10 mM MnCl2), the kinase to be tested (5-10 mU) (EGFR/ALK/BTK/c-KIT/c-SRC/MET/PDGFRα/VEGFR2), the substrate for the kinase to be tested (a reference material), 10 mM of the solution of magnesium acetate and γ-^33 P-ATP, and different concentrations of the tested compounds. […] The reaction was terminated with […] of the 3% phosphate buffer solution. 10 μL of the reaction liquid was titrated on the Filtermat A membrane. The membrane was washed with 75 mM of the phosphate solution thrice (5 minutes each time), and then with methanol once, and finally dried. The membrane was subjected to a scintillation counting. The value of the scintillation counting reflected the phosphorylation level of the substrate and therefore could characterize the inhibition of the kinase activity.

[2] = molecular target: EGFR wild type (Homo sapiens (Human), UniProt P00533); assay: as above; type: biochemical; conditions: ATP 10 μM (Km)
Chain of EGFR wild type (P00533 25-1210): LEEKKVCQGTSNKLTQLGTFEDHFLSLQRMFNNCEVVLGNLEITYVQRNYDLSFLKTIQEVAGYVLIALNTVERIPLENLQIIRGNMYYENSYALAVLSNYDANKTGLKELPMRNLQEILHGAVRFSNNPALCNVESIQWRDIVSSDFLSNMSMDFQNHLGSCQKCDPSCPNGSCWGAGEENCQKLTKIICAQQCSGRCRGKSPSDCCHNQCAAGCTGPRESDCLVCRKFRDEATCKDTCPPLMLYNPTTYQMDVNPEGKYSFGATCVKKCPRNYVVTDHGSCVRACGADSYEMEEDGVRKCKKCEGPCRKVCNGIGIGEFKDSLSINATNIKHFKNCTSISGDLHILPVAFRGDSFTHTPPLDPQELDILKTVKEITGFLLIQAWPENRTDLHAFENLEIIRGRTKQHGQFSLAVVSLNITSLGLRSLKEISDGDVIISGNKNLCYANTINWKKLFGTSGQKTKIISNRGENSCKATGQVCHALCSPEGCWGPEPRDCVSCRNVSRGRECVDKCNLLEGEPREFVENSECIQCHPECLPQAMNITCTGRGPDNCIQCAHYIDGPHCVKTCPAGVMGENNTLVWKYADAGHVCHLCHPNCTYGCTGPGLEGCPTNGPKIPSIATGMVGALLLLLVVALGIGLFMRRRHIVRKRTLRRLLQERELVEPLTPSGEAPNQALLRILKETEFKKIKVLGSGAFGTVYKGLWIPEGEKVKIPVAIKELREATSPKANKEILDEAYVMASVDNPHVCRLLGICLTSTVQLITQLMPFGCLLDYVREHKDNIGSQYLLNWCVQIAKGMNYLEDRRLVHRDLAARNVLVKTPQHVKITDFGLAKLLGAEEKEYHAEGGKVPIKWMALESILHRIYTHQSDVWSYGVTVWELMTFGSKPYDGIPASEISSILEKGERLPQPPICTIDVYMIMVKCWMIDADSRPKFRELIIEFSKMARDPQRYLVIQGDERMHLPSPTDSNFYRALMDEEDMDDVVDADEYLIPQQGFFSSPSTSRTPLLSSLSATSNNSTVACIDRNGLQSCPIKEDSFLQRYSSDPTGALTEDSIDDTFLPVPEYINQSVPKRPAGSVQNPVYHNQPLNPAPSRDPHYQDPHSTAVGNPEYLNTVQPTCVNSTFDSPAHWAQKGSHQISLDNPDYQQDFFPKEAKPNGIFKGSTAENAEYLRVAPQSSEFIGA
Protocol: as §1, §2

[3] = molecular target: EGFR L858R mutant type (Homo sapiens (Human), UniProt P00533, L858R); assay: as above; type: biochemical; conditions: ATP 200 μM (Km)
Chain of EGFR L858R mutant type (P00533 25-1210 L858R): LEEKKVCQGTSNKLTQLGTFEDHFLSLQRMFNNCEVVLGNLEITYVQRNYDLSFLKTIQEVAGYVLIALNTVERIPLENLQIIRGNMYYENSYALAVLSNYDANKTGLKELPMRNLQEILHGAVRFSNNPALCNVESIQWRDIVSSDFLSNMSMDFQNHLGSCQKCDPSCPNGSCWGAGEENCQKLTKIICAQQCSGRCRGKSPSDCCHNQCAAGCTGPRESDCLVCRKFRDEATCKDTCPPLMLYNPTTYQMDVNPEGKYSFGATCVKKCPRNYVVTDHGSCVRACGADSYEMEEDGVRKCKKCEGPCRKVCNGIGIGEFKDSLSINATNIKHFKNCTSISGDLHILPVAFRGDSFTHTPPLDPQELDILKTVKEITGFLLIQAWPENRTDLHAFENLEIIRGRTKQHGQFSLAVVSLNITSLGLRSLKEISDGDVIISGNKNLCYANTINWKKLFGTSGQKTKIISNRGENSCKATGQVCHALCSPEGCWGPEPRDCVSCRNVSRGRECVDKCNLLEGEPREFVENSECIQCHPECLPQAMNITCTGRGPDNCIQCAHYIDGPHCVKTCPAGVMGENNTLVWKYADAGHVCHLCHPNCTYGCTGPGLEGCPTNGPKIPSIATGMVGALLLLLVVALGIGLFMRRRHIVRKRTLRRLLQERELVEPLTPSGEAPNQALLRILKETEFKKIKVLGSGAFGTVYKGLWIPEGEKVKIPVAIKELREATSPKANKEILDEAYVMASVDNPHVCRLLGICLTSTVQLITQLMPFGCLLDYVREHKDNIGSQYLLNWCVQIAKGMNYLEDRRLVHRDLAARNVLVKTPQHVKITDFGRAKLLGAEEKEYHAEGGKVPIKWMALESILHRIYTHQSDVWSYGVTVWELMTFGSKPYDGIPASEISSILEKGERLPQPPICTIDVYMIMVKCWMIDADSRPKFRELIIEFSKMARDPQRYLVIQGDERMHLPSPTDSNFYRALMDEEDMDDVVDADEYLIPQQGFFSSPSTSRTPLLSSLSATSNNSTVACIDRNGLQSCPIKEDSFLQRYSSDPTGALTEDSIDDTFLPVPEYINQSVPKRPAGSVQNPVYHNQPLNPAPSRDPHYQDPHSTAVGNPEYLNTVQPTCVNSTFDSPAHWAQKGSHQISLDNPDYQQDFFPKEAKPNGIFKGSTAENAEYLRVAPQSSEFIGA
Protocol: as §1, §2

[4] = tested on: non-small cell lung carcinoma cell strain H292 (EGFR WT); assay: In-vitro tumor cell proliferation inhibition, MTT; type: cell-based, human
[5] = tested on: non-small cell lung carcinoma cell strain H1975 (EGFR L858R/T790M mutation); assay: In-vitro tumor cell proliferation inhibition, MTT; type: cell-based, human
[6] = tested on: non-small cell lung carcinoma cell strain HCC827; assay: In-vitro tumor cell proliferation inhibition, MTT; type: cell-based, human
Method in brief: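 Cells grown in RPMI-1640 with 10% FBS, seeded overnight (HCC827 at 6×10^4 cells/ml), then exposed to graded compound concentrations for 72 h at 37 °C, 5% CO2, with 1% DMSO solvent control. MTT absorbance at 570 nm; inhibition relative to control; triplicate wells, ≥3 repeats.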

[7] = tested on: non-small cell lung carcinoma cell strain PC-9 (EGFR delE746-A750 deletion mutation); assay: In-vitro tumor cell proliferation inhibition, MTT; type: cell-based, human; conditions: 72 hours
[8] = tested on: human non-small cell lung carcinoma cell strain HCC827; assay: In-vivo anti-tumor test, nude mouse subcutaneously transplanted non-small cell lung carcinoma model; conditions: nude mice, intragastric
Text: The object of this assay was to determine the in-vivo anti-tumor effect of the present compound. In this assay, a nude mouse subcutaneously transplanted non-small cell lung carcinoma model was used to test the present compound 8-10 for the in-vivo anti-tumor activity. The used cell strain was human non-small cell lung carcinoma cell strain HCC827.
BALB/C nude mice, aged 6-8 weeks, were inoculated with HCC827 cell subcutaneously at the posterior segment of rib in a concentration of about 5×10^6 cells/0.1 ml per mouse. Upon the growth of the tumor up to 200-300 mm^3 (about 20 days), mice were grouped (n=6) and administrated intragastrically.
(§3) Observation Indices: the mice were measured every three days for the weight, and the length and width of tumor, and the tumor volume was calculated as length×width^2×0.52. […] 3. Results

[9] = tested on: human acute myelogenous leukemia cell strain MV4-11; assay: In-vivo anti-tumor test, NOD-SCID mouse subcutaneously transplanted human leukemic solid tumor model; conditions: NOD-SCID mice, intragastric
Text: The object of this assay was to determine the in-vivo anti-tumor effect of the present compound. In this assay, a NOD-SCID mouse subcutaneously transplanted human leukemic solid tumor model was used to test the present compound 8-29 for the in-vivo anti-tumor activity. The used cell strain was human acute myelogenous leukemia cell strain MV4-11.
NOD-SCID mice, aged 6-8 weeks, were inoculated with MV4-11 cell subcutaneously at the posterior segment of rib in a concentration of about 1×10^7 cells/0.1 ml per mouse. Upon the growth of the tumor up to 400-500 mm^3 (about 20 days), mice were grouped (n=6) and administrated intragastrically.
as §3

Chain of EGFR L858R/T790M double mutant type (P00533 25-1210 T790M/L858R): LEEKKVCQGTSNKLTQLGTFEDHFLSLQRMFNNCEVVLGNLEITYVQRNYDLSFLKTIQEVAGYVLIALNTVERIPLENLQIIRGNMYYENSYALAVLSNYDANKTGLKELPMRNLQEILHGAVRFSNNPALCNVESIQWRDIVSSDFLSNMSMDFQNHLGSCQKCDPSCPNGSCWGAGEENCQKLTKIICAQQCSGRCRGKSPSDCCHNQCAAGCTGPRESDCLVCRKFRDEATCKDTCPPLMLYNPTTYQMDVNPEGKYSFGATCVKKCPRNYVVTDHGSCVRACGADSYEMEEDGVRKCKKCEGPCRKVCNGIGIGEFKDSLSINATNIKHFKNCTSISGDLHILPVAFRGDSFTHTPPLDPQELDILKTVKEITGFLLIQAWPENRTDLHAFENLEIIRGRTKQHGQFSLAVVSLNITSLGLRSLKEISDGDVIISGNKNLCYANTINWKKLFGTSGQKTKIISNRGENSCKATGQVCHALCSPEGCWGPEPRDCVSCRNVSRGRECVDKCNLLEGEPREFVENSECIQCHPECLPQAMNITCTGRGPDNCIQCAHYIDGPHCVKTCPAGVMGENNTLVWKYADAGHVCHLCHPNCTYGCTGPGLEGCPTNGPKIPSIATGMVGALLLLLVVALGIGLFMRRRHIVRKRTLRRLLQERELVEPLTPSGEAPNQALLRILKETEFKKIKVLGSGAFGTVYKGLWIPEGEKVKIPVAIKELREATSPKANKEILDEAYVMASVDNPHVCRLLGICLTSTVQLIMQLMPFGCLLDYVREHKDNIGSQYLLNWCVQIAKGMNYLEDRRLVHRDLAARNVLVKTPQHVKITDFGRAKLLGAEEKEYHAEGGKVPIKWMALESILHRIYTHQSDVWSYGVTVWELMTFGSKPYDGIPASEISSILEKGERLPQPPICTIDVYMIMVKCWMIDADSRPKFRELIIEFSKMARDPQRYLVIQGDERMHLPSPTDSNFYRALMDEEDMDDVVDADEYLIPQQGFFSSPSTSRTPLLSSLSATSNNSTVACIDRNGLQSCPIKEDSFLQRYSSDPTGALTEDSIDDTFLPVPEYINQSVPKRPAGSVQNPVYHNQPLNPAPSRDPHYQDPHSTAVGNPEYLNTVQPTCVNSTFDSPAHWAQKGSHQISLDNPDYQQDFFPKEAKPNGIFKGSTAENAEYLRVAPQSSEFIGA

| IC50 ([4]; Homo sapiens, NCI-H292, 72 hours) | IC50 ([5]; Homo sapiens, NCI-H1975, 72 hours) | IC50 ([6]; Homo sapiens, HCC827, 72 hours) | IC50 ([7]; Homo sapiens) | SMILES | IC50 [1] | IC50 [2] | IC50 [3] | IC50 ([4]; 72 hours) | IC50 ([5]; 72 hours) | IC50 ([6]; 72 hours) | IC50 [7] | in-vivo tumor growth inhibition ([8]; HCC827 xenograft, 2 mg/kg q.d. or higher (2, 5, 10, 20 mg/kg q.d.)) | toxicity (untoward reactions: weight reduction, exanthema, diarrhea) ([8]; 2-20 mg/kg q.d.) | in-vivo tumor growth inhibition ([9]; MV4-11 xenograft, 5 mg/kg q.d. or higher (5, 10, 20 mg/kg q.d.)) | toxicity (untoward reactions: weight reduction, exanthema, diarrhea) ([9]; 5-20 mg/kg q.d.) |
| --- | --- | --- | --- | --- | --- | --- | --- | --- | --- | --- | --- | --- | --- | --- | --- |
|  |  |  |  | CC(C)n1c(Nc2ccccc2)nc2cnc(Nc3ccc(C(=O)NN4CCN(C)CC4)cc3)nc21 [Compound 8-1] | 0.09 µM | 0.003 µM | 0.008 µM | 1390 nM | 7600 nM | 2 nM | 105 nM |  |  |  |  |
|  |  |  |  | CC(C)n1c(Nc2ccc(F)c(Cl)c2)nc2cnc(Nc3ccc(C(=O)NN4CCN(C)CC4)cc3)nc21 [Compound 8-2] | < 0.001 µM | 0.002 µM | 0.001 µM | 883 nM | > 10000 nM | 1.3 nM | 558 nM |  |  |  |  |
| 138 nM | > 10000 nM | 7.5 nM | 12.1 nM | COc1cc(C(=O)NN2CCN(C)CC2)ccc1Nc1ncc2nc(Nc3ccccc3)n(C(C)C)c2n1 [Compound 8-7, 3-methoxy-4-(9-isopropyl-8-phenylamino-9H-purin-2-ylamino)-N-(4-methylpiperazin-1-yl)benzamide] |  |  |  |  |  |  |  |  |  |  |  |
|  |  |  |  | CC(C)n1c(Nc2ccccc2)nc2cnc(Nc3ccc(C(=O)NC4CCN(C)CC4)cc3)nc21 [Compounds 8-9] | 0.006 µM | < 0.001 µM | 0.0004 µM | 160 nM | > 10000 nM | 4.2 nM | 72.3 nM |  |  |  |  |
|  |  |  |  | CC(C)n1c(Nc2ccccc2)nc2cnc(Nc3ccc(N4CCN(C)CC4)cc3)nc21 [Compounds 8-10] | 0.046 µM | 0.005 µM | 0.005 µM | 10.5 nM | 2000 nM | 0.1 nM | 0.9 nM | substantial in-vivo growth inhibition | low toxicity |  |  |
|  |  |  |  | CC(C)n1c(Nc2cccc(Br)c2)nc2cnc(Nc3ccc(N4CCN(C)CC4)cc3)nc21 [Compounds 8-11] | 0.005 µM | 0.007 µM | 0.004 µM | 8.8 nM | 1730 nM | 0.2 nM | 0.2 nM |  |  |  |  |
|  |  |  |  | C#Cc1cccc(Nc2nc3cnc(Nc4ccc(N5CCN(C)CC5)cc4)nc3n2C(C)C)c1 [Compounds 8-12] | 0.003 µM | 0.004 µM | 0.003 µM | 10.7 nM | 1930 nM | 0.2 nM | 0.2 nM |  |  |  |  |
|  |  |  |  | CC(C)n1c(Nc2ccc(F)c(Cl)c2)nc2cnc(Nc3ccc(N4CCN(C)CC4)cc3)nc21 [Compounds 8-13] | 0.009 µM | 0.004 µM | 0.003 µM | 6.1 nM | 2000 nM | 0.2 nM | 0.3 nM |  |  |  |  |
|  |  |  |  | CC(C)n1c(Nc2ccc(Br)cc2)nc2cnc(Nc3ccc(N4CCN(C)CC4)cc3)nc21 [Compounds 8-15] | 0.015 µM | 0.003 µM | 0.001 µM | 220 nM | > 10000 nM | 0.2 nM | 6.4 nM |  |  |  |  |
|  |  |  |  | CC(C)n1c(Nc2cccc(C(F)(F)F)c2)nc2cnc(Nc3ccc(N4CCN(C)CC4)cc3)nc21 [Compounds 8-16] | 0.012 µM | 0.003 µM | 0.001 µM | 129 nM | 1820 nM | 0.2 nM | 16.8 nM |  |  |  |  |
|  |  |  |  | COc1cccc(Nc2nc3cnc(Nc4ccc(N5CCN(C)CC5)cc4)nc3n2C(C)C)c1 [Compounds 8-17] | 0.004 µM | 0.004 µM | 0.001 µM | 29.6 nM | 1900 nM | 0.2 nM | 2.5 nM |  |  |  |  |
|  |  |  |  | COc1ccc(Nc2nc3cnc(Nc4ccc(N5CCN(C)CC5)cc4)nc3n2C(C)C)cc1 [Compounds 8-18] | 0.057 µM | 0.03 µM | 0.005 µM | 531 nM | > 10000 nM | 117 nM | 34.9 nM |  |  |  |  |
|  |  |  |  | CC(C)n1c(Nc2ccc(NC(=O)Nc3ccc(F)c(Cl)c3)cc2)nc2cnc(Nc3ccc(N4CCN(C)CC4)cc3)nc21 [Compounds 8-21] | 0.005 µM | 0.011 µM | 0.005 µM | 1160 nM | 7310 nM | 51.6 nM | 85.9 nM |  |  |  |  |
|  |  |  |  | CC(C)n1c(Nc2ccc(C(=O)Nc3cccc(F)c3)cc2)nc2cnc(Nc3ccc(N4CCN(C)CC4)cc3)nc21 [Compounds 8-22] | 0.087 µM | 0.117 µM | 0.01 µM | 1730 nM | > 10000 nM | > 1000 nM | 2790 nM |  |  |  |  |
|  |  |  |  | CN1CCN(c2ccc(Nc3ncc4nc(Nc5ccccc5)n(C5CC5)c4n3)cc2)CC1 [Compounds 8-23] | 0.041 µM | 0.007 µM | 0.002 µM | 154 nM | > 10000 nM | 0.2 nM | 35.9 nM |  |  |  |  |
|  |  |  |  | CN1CCN(c2ccc(Nc3ncc4nc(Nc5ccccc5)n(C)c4n3)cc2)CC1 [Compounds 8-24] | 0.522 µM | 0.012 µM | 0.003 µM | 171 nM | > 10000 nM | 0.2 nM | 6 nM |  |  |  |  |
|  |  |  |  | CN1CCN(c2ccc(Nc3ncc4nc(Nc5ccccc5)[nH]c4n3)cc2)CC1 [Compounds 8-25] | 0.458 µM | 0.029 µM | 0.005 µM | 1650 nM | > 10000 nM | 52.8 nM | 258 nM |  |  |  |  |
|  |  |  |  | CC(C)n1c(Nc2ccc(C(F)(F)F)cc2)nc2cnc(Nc3ccc(N4CCN(C)CC4)cc3)nc21 [Compounds 8-27] | 0.054 µM | 0.034 µM | 0.005 µM | 4190 nM | > 10000 nM | 82.3 nM | 115 nM |  |  |  |  |
|  |  |  |  | CC(C)n1c(Nc2cccnc2)nc2cnc(Nc3ccc(N4CCN(C)CC4)cc3)nc21 [Compounds 8-29] | 0.064 µM | 0.031 µM | 0.004 µM | 180 nM | > 10000 nM | 7.2 nM | 10 nM |  |  | substantial in-vivo growth inhibition | low toxicity |
|  |  |  |  | CC(C)n1c(NC2CCCCC2)nc2cnc(Nc3ccc(N4CCN(C)CC4)cc3)nc21 [Compounds 8-30] | 0.228 µM | 0.015 µM | 0.005 µM | 201 nM | > 10000 nM | 483 nM | 55.1 nM |  |  |  |  |
|  |  |  |  | C=CC(=O)Nc1cccc(Nc2ncc3nc(Nc4ccccc4)n(C(C)C)c3n2)c1 [Compounds 8-38] | 0.037 µM | 0.002 µM | 0.0006 µM | 7.3 nM | 644 nM | 0.5 nM | 0.7 nM |  |  |  |  |
